Reference: the METLIN SMRT retention time set (Domingo-Almenara et al. 2019)

Assay: gradient 5% acetonitrile 3 min, to 50% in 2 min, to 85% in 15 min, held 3 min, 100 µL/min
Conditions: column: Zorbax Extend-C18 2.1 x 50 mm; eluents: water / acetonitrile, 0.1% formic acid
Procedure, shortened: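 Each retention time is based on an adduct peak selected computationally and verified by manual inspection. Measurements used HPLC–quadrupole time-of-flight mass spectrometry in positive and negative ionization mode on mixtures of ~100 pure standards. Chromatography ran on a Zorbax Extend-C18 column (2.1 × 50 mm, 1.8 μm) at 100 μL/min with water and acetonitrile, each containing 0.1% formic acid, and dead and dwell volumes of 40 μL and 900 μL.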

| RP-LC retention time [s] | Compound |
| --- | --- |
| 1060 | O=C(NC1CCCC1)c1cn(Cc2ccccc2)cc2c(=O)n(-c3ccccc3)nc1-2 |
| 564 | COc1ccc2c(c1)c(CN1CCC(C(=O)NCCN3CCN(C)CC3)CC1)cn2C |
| 586 | CN(C)C[C@@H]1CN(Cc2ccccc2)C[C@H]1NS(=O)(=O)c1cccc(F)c1 |
| 842 | COc1ccc(NC(=O)C2CCCN(S(=O)(=O)c3c[nH]c(C(=O)N4CCCCCC4)c3)C2)cc1 (stereo not given) |
| 888 | CC1=C(c2ccc(C)cc2)S(=O)(=O)N=C1N1CCC(NC(=O)CCC(C)C)CC1 |
| 963 | CC1CC(C)CN(C(=O)C2CCCN(C(=O)c3cc4sccc4n3C)C2)C1 (stereo not given) |
| 884 | CC(Oc1ccc(Cl)cc1)C(=O)N1CCN(c2cc(-c3ccccc3)[nH]n2)CC1 (stereo not given) |
| 777 | CCCN1CCn2cc(S(=O)(=O)Nc3cccc(C)c3)cc2C1=O |
| 576 | O=C(NC1CC1)c1ccc(N2CCC(NCc3cc(Br)ccc3O)C2)nc1 (stereo not given) |
| 863 | COc1ccc(CNC(=O)c2ccc3c(c2)N(C)C(=O)c2ccccc2O3)cc1 |
| 748 | CC(C)c1ccc(NC(=O)Cn2cnc3nc(N4CCC(C(=O)NC5CC5)CC4)sc3c2=O)cc1 |
| 730 | O=C(NCC(=O)N1CC2CN(S(=O)(=O)c3cccc(F)c3)CC(C1)O2)c1ccccc1 |
| 959 | O=C(CS(=O)(=O)c1ccc(Cl)cc1)Nc1nc(-c2ccc3c(c2)OCO3)cs1 |
| 848 | CCOc1ccccc1-n1ccn(Cc2nc(-c3ccccc3)no2)c(=O)c1=O |
| 772 | O=C(O)c1ccc(Nc2ncnc3c2cnn3Cc2ccccc2)cc1 |
| 829 | O=C(Cn1c(=O)nc(N2CCCCC2)c2ccccc21)Nc1cc(F)cc(F)c1 |
| 575 | Cc1cnc2n(c1=O)C(CC(=O)NCCc1ccc(S(N)(=O)=O)cc1)CS2 (stereo not given) |
| 643 | CCN1C(=O)COc2ccc(-c3nc(NC(=O)C(C)(C)C)sc3C)cc21 |
| 651 | COc1cccc(CN2CC=C(C(=O)N3CCN(c4ccccc4OC)CC3)CC2)c1 |
| 675 | CCc1nnc(NC(=O)C2CCN(C(=O)c3ccccc3F)CC2)s1 |
| 611 | Cc1ccc(NC(=O)Cn2c(N)nc(C)c(C)c2=O)cc1 |
| 993 | Cc1ccc(C(=O)Nc2cc(-c3cccs3)no2)cc1 |
| 1150 | CCCNC(=O)N(C1CCOCC1)C1CCN(C(=O)c2nn(C)c3ccccc23)CC1 |

| RP-LC retention time [s] | Compound |
| --- | --- |
| 796 | CC(=O)N(Cc1nn(C)c2c1CN(S(=O)(=O)c1cccc(F)c1)CC2)c1ccccc1 |
| 748 | COc1cc(NC(=O)Cn2c(C)cc(-c3nnc(C)o3)c2C)cc(OC)c1 |
| 674 | COc1cccc(NS(=O)(=O)c2cc3n(c2)CCN(C)C3=O)c1 |
| 810 | CCOc1cc(C(=O)N2CCN(c3c(C)n(C)c(=O)n(C)c3=O)CC2)cc(OCC)c1OCC |
| 743 | O=C(NCCc1nc(-c2ccc3c(c2)OCO3)n[nH]1)c1ccc(F)c(Cl)c1 |
| 1300 | COc1ccc(Cl)cc1NC(=O)c1cc(C)n2nc(-c3ccco3)cc2n1 |
| 638 | Cc1ccc(-c2nc(CN3CCCC(C(=O)NC4CCCCNC4=O)C3)no2)cc1 (stereo not given) |
| 801 | Cc1nn(C)c(=O)c2cc(S(=O)(=O)NC(C)c3ccccc3)cn12 (stereo not given) |
| 625 | CCC(=O)N(C1CCOCC1)C1CCN(Cc2cc(F)c(F)c(F)c2)CC1 |
| 714 | N#Cc1cccc(C(=O)N2CCN3CCS(=O)(=O)N(C4CC4)C(=O)C3C2)c1 (stereo not given) |
| 599 | O=C(NCc1cccnc1)c1cn2ccnc(-c3ccccc3)c2n1 |
| 1030 | CC1CCN(C(=O)c2cn(-c3cc(N4CCC(C)CC4)ncn3)cn2)CC1 |
| 989 | CSc1cccc(NC(=O)N2CCCC(C)(C(=O)NCc3ccc(C)cc3)C2)c1 (stereo not given) |
| 717 | CCn1cc(-c2ccc(Cl)cc2)cc1C(=O)N1CCN(C(C)C)CC1 |
| 573 | CCCN1CCN(CCCNC(=O)C2CCCN(c3nc4cccnc4s3)C2)CC1 (stereo not given) |
| 1040 | Cc1cc(C(=O)Nc2nc(-c3nc4ccccc4s3)cs2)c(C)o1 |
| 977 | CC(=O)c1cccc(NC(=O)c2noc3c2CCCCC3)c1 |
| 655 | Cc1nc(CNC(=O)C2CCN(C(=O)Nc3ccccc3Br)CC2)cs1 |
| 798 | COCCn1cc(CCNC(=O)Nc2cccc(Cl)c2F)c2cccnc21 |
| 612 | CC1C(=O)NCCN1C(=O)c1cc(Cl)ccc1Cl (stereo not given) |
| 757 | Cc1cc(C2CCCN2C(=O)Nc2ccccc2C)no1 (stereo not given) |
| 861 | COCCN1C(=O)Cc2ccccc2C1C(=O)NCc1ccc(C(C)C)cc1 (stereo not given) |
| 864 | Cc1ccc(NS(=O)(=O)c2cc3c(s2)CCN(C(=O)C2CCC2)C3)cc1 |

| RP-LC retention time [s] | Compound |
| --- | --- |
| 846 | COc1ccc(NC(=O)N2CCCC(C)(C(=O)NCc3ccccc3)C2)cc1OC (stereo not given) |
| 724 | NS(=O)(=O)OC[C@@H]1C[C@@H](n2ccc3c(N[C@H]4CCc5ccccc54)ncnc32)C[C@H]1O |
| 761 | COC(=O)c1ncn2c1C(=O)N(CCCc1ccccc1)C(C)(C(=O)NCc1ccccc1)C2 (stereo not given) |
| 812 | O=C(NC1CCCCCC1)c1ccc(CN2CCN(Cc3ccccc3)C(=O)C2=O)cc1 |
| 952 | O=C(Nc1cnc(N2CCCCCC2)nc1)c1ccc(Br)o1 |
| 908 | COc1ccc(Nc2c(-c3ccc(SC)cc3)nc3cnccn23)cc1 |
| 543 | COCC1(O)CCOC2(CCN(Cc3c(F)cccc3Cl)CC2)C1 (stereo not given) |
| 857 | CCc1ccc(CNC(=O)CC2CCN(C(=O)c3[nH]c(C)cc3C)CC2)cc1 |
| 571 | O=C(CSc1nnc(CCN2CCOCC2)o1)Nc1ccc(F)c(Cl)c1 |
| 606 | O=C(Nc1ccc2c(c1)OCCO2)c1cn2c(n1)COCC2 |
| 685 | CCOc1ccccc1C(=O)Nc1c(-c2ccccc2)nc2ccccn12 |
| 905 | COCCCNS(=O)(=O)c1ccccc1-c1nc(-c2ccc(F)cc2)no1 |
| 816 | Cc1sc2ccn(C)c(=O)c2c1C(=O)NCC1CCCCC1 |
| 731 | Cc1ccc(NC(=O)N2CC(c3nc(C)no3)C3(CCOCC3)C2)c(C)c1 (stereo not given) |
| 1000 | O=C(CCn1nnc2cc(-c3noc(COc4ccccc4)n3)ccc21)N1CCCCCC1 |
| 629 | Cc1ccc(CN(C)Cc2cc(=O)n3cc(Cl)ccc3n2)cc1 |
| 790 | COc1ccc(-n2ccn3cc(-c4ccc(F)cc4)nc3c2=O)cc1 |
| 608 | O=S(=O)(c1ccc(N2CCN(c3ccccn3)CC2)nn1)C1CCCCC1 |
| 705 | Cc1cc(=O)n(CC(=O)Nc2cccc(Br)c2)c(N2CCOCC2)n1 |
| 718 | Cc1ccc(S(=O)(=O)N2CCC3(CC2)NCCN=C3NCc2cccc(F)c2)cc1 |
| 572 | Nc1nc(N2CCOCC2)nc2ccccc12 |
| 792 | CC(C)c1noc(-c2ccn3c(CC(=O)NC(C)c4ccc(F)cc4)nnc3c2)n1 (stereo not given) |
| 856 | Cc1c(C#N)c2ccccc2n1CC(=O)NCc1ccc2c(c1)OCCCO2 |

| RP-LC retention time [s] | Compound |
| --- | --- |
| 884 | CCc1nc(-c2csc(S(=O)(=O)N3CCCC(C(=O)Nc4nccs4)C3)c2)no1 (stereo not given) |
| 616 | O=C(O)c1nnn(-c2cccc(F)c2)c1-c1ccncc1 |
| 757 | COCCN(CC(=O)N1CCc2sccc2C1COc1ccccc1OC)C(C)=O (stereo not given) |
| 752 | COc1ccccc1C(=O)N1CCC2(CC1)NC(=O)c1cc(F)ccc1N2C |
| 601 | O=C(NC1CC1)c1nc(C(=O)N2CCN(C3CCCCC3)CC2)cs1 |
| 698 | CC(C)CNC(=O)CN1C(=O)C2CCCCN2c2ccc(S(=O)(=O)N(C)C)cc21 (stereo not given) |
| 697 | COc1ccc(NC(=O)CCc2c(C)nn(-c3cc(N(C)C)ncn3)c2C)cc1OC |
| 919 | Cc1ccc(CNC(=O)C2CCN(C(=O)N3CCOc4ccc(Cl)cc43)CC2)cc1 |
| 738 | Cc1oc2ncnc(OCC(=O)Nc3ccc(S(N)(=O)=O)cc3)c2c1C |
| 1000 | CCc1cccc(NC(=O)Cn2nc(N3CCCC3)c3ccccc3c2=O)c1 |
| 826 | Cc1ccccc1CN1N=C(C(=O)N2CCOCC2)S(=O)(=O)c2ccccc21 |
| 1070 | CCCc1ccc(S(=O)(=O)N2CCc3c(c(-c4nnc(-c5ccccc5F)o4)nn3C)C2)cc1 |
| 639 | Cc1cc(C(=O)NC(C)C)c2cc(F)ccc2n1 |
| 793 | CCc1ccc(CNC(=O)C2CCN(Cc3cn(C)c4ccc(Cl)cc34)CC2)cc1 |
| 1220 | CCN1C(=O)C2(CCN(S(=O)(=O)c3ccc4c(c3)CCCC4)CC2)c2ccccc21 |
| 1000 | Cc1ccc(N2CCN(c3nccn4c(=O)n(CC(=O)Nc5ccc(C)c(C)c5)nc34)CC2)cc1 |
| 608 | O=C(C1CCCO1)N1CCn2c(nnc2-c2ccccc2)C1 (stereo not given) |
| 642 | O=C(NCC(O)c1ccsc1)Nc1cccs1 (stereo not given) |
| 798 | CCCCC(=O)Nc1ccc(OCc2cc(C(=O)NC3CC3)no2)cc1 |
| 942 | Cc1cc2c(c(=O)n(-c3ccc(F)cc3)c(=O)n2CC(=O)Nc2ccc(C(F)(F)F)cc2)n1C |

| Compound | RP-LC retention time [s] |
| --- | --- |
| Cc1ccccc1-n1c(/C=C\c2ccccn2)nc2ccccc2c1=O | 948 |
